This is an account of results in patent US11214538B2, “Farnesoid X receptor agonists and uses thereof” (Metacrine, Inc., priority 2015, dated 2022).

In assay [1] the target is T1, hFXR (Homo sapiens, UniProt Q96RI1).
T1 construct: expressed in transfected cells; host or cells: CV-1 cells
T1 sequence (Q96RI1 1-486): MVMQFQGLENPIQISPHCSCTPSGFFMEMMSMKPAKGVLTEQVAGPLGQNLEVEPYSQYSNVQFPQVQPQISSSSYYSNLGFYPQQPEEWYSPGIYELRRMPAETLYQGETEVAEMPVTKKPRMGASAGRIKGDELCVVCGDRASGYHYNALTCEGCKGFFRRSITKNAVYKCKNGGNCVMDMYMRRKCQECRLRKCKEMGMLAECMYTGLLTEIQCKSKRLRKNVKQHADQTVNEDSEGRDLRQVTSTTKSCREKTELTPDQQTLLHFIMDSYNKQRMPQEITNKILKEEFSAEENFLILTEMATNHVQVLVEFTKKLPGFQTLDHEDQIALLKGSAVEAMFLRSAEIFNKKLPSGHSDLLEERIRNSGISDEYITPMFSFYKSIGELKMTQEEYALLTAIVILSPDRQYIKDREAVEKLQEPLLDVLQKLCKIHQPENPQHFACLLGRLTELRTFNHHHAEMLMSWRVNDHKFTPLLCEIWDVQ
T1 sequence (P19793 1-462 partner): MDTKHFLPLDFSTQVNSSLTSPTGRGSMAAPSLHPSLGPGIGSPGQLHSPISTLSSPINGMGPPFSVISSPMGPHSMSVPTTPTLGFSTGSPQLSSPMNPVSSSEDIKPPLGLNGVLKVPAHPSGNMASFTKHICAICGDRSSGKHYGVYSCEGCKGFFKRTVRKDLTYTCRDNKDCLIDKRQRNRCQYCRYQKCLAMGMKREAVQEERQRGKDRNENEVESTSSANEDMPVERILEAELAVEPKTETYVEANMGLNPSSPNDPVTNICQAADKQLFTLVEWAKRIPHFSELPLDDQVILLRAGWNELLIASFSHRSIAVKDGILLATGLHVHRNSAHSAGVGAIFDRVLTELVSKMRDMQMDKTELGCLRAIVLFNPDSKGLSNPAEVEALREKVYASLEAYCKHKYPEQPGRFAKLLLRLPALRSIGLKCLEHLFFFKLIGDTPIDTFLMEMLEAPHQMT
In words: In Vitro FXR Assay (PGL3), luciferase reporter in transfected CV-1 cells. The class given is cell-based. As to conditions: CV-1 cells transfected with hFXR, hRXR, PGL3-ECRE*6-luc; 18 hrs incubation; luminescence. As for the experimental part:
Example B-1: In Vitro FXR Assay (PGL3)
CV-1 cells were seeded at a density of 2,000,000 cells in a T175 flask with DMEM+10% charcoal double-stripped FBS and incubated at 37° C. in a 5% CO2 for 18 h (O/N).
After 18 h of incubation, the medium in the T175 flask was changed with fresh DMEM+10% charcoal super-stripped serum.
To prepare the transfection reaction mixture, the transfection reagent (X-tremeGENE HP from Roche, Cat #06 366 236 001) was added in to a 1.5 mL microcentrifuge tube labelled “A” at a ratio of 1:3 (DNA in g: transfection reagent in μL). OptiMEM medium (Life Technologies, Cat #31985-062) was added accordingly to provide a total volume of 1 mL. The transfection reaction mixture was then briefly vortexed and incubated at room temperature for 5 minutes.
In a separate 1.5 mL microcentrifuge tube labelled “B”, 100 μL OptiMEM and plasmids XPD90Gal pCMXhFXRfl, pCMXhRXRfl+PGL3-ECRE*6-luc+CMX-YFP in the ratio 2 g: 2 g:18 g:3 g were added. This microcentrifuge tube “B” was then briefly vortexed and incubated at room temperature for 5 minutes.
The total volume in tube labelled “A” was then transferred in to tube labelled “B.” The mixture was then briefly vortexed and the transfection:DNA complex was then incubated for about 15-20 minutes at room temperature.
Following incubation, the transfection reagent/DNA mixture complex was then added to cells in the T175 flask and the cells were incubated at […] (O/N) at 37° C. in 5% CO2.
In a 96 well plate, a half logarithmic serial dilution was prepared. OptiMEM was used as the diluent. Using any of one of the compounds described herein, a compound stock solution of 10 mM was prepared. An initial 1:100 dilution was made into the first well for a final concentration of 100 μM. The final concentrations in the 96-well plate was prepared by using a multichannel pipette to transfer 5 μL of the diluted compound to 384-well plate in quadruplicate.
Cells in T175 flask were trypsinized and cells were resuspending in 40 mL phenol red free DMEM+10% charcoal super-stripped FBS. Typically, one T175 flask was sufficient to seed two 384 well plates. CV-1 cells were seeded at 45 μL cell suspension/well using a multichannel pipet or a 384 multidrop dispenser. The cells were then incubated for 18 hrs, overnight.
After removing the plates from the incubator, the medium was flicked out of plate and 384 well plate was turned upside down onto paper towel. The remaining medium was gently tapped out. 15 μL lysis buffer was then added to each well using a multichannel pipet or a 384 well multi-drop dispenser. After incubation for 10 minutes at room temperature on shaker, 30 μL Luciferase buffer was added to each well. Luminescence counts were taken immediately using the Perkin Elmer Envision.
The ability of the compounds disclosed herein to […] FXR activity was quantified and the respective EC50 value was determined. Fex=fexaramine.
A general note: Reporter assays use an easily measured gene product as a stand-in for the process of interest.

Assay [2] addresses T1, hFXR. In words: In Vitro FXR Assay (TK), luciferase reporter in transfected CV-1 cells. Conditions: CV-1 cells transfected with hFXR, hRXR, TK-ECRE-luc; 18 hrs incubation; luminescence; compounds with a maximum efficacy of <25% of the Fexaramine control classified as '+'. The class given is cell-based. As for the experimental part: Example B-2: In Vitro FXR Assay (TK)
CV-1 cells were seeded at a density of 2,000,000 cells in a T175 flask with DMEM+10% charcoal double-stripped FBS and incubated at 37° C. in 5% CO2 for 18 h (O/N).
After 18 h of incubation, the medium in the T175 flask was changed with fresh DMEM+10% charcoal super-stripped serum. In a polypropylene tube, 2500 μL OptiMEM (Life Technologies, Cat #31985-062) was combined with expression plasmids for hFXR, hRXR, TK-ECRE-luc and pCMX-YFP. The tube was then briefly vortexed and incubated at room temperature for 5 minutes. Transfection reagent (X-tremeGENE HP from Roche, Cat #06 366 236 001) was added to the OptiMEM/plasmid mixture vortexed and incubated at room temperature for 20 minutes. Following incubation, the transfection reagent/DNA mixture complex was added to cells in the T175 flask and the cells were incubated at 37° C. in 5% CO2 for 18 h (O/N).
Compounds were serially diluted in DMSO and added to transfected CV-1 cells. The cells were then incubated for 18 hrs. The next day cells were lysed and examined for luminescence.

Where only a bound is given, the exact number is not on record here.

As a reminder, the EC50 is the concentration giving half of the maximal effect. On to `COc1cncc(-c2cccc(N(Cc3ccc(-c4ccc(N(C)C)cc4)cc3)C(=O)C3CCCCC3)c2)c1` [Compound 1, N-((4′-(Dimethylamino)-[1,1′-biphenyl]-4-yl)methyl)-N-(3-(5-methoxypyridin-3-yl)phenyl)cyclohexanecarboxamide], for which, on hFXR [1], the “Cmpd/Fex (ratio of the EC50 for the test compound relative to the EC50 of the Fexaramine control)” value was “+++ (‘+++’ means Cmpd/Fex <10)”. The EC50 at hFXR [2] is ≤ 3 µM. Regarding `COc1cccc(-c2cccc(N(Cc3ccc(-c4ccc(N(C)C)cc4)cc3)C(=O)C3CCCCC3)c2)c1` [Compound 2, N-((4′-(Dimethylamino)-[1,1′-biphenyl]-4-yl)methyl)-N-(3′-methoxy-[1,1′-biphenyl]-3-yl)cyclohexanecarboxamide], on hFXR [1], the “Cmpd/Fex (ratio of the EC50 for the test compound relative to the EC50 of the Fexaramine control)” value is “++ (‘++’ means Cmpd/Fex >10 & <100)”.

On to `COc1cc(-c2cccc(N(Cc3ccc(-c4ccc(N(C)C)cc4)cc3)C(=O)C3CCCCC3)c2)ccn1` [Compound 3, N-((4′-(Dimethylamino)-[1,1′-biphenyl]-4-yl)methyl)-N-(3-(2-methoxypyridin-4-yl)phenyl)cyclohexanecarboxamide], for which the “Cmpd/Fex (ratio of the EC50 for the test compound relative to the EC50 of the Fexaramine control)” value at hFXR [1] is given as “+++ (‘+++’ means Cmpd/Fex <10)”.

Regarding `COCCNc1cccc(N(Cc2ccc(-c3ccc(N(C)C)cc3)cc2)C(=O)C2CCCCC2)c1` [Compound 4, N-((4′-(dimethylamino)-[1,1′-biphenyl]-4-yl)methyl)-N-(3-((2-methoxyethyl)amino)phenyl)cyclohexanecarboxamide], the “Cmpd/Fex (ratio of the EC50 for the test compound relative to the EC50 of the Fexaramine control)” value at hFXR [1] is on record as “+++ (‘+++’ means Cmpd/Fex <10)”. The molecule further yielded an EC50 on hFXR [2] of 3 to 10 µM. As to `CN(C)CCNc1cccc(N(Cc2ccc(-c3ccc(N(C)C)cc3)cc2)C(=O)C2CCCCC2)c1` [Compound 5, N-((4′-(Dimethylamino)-[1,1′-biphenyl]-4-yl)methyl)-N-(3-((2-(dimethylamino)ethyl)amino)phenyl) cyclohexanecarboxamide], on hFXR [1], the “Cmpd/Fex (ratio of the EC50 for the test compound relative to the EC50 of the Fexaramine control)” value is “+ (‘+’ means Cmpd/Fex >100)”. Still for that read-out and setting: the value for `CC(C)CNc1cccc(N(Cc2ccc(-c3ccc(N(C)C)cc3)cc2)C(=O)C2CCCCC2)c1` [Compound 6, N-((4′-(Dimethylamino)-[1,1′-biphenyl]-4-yl)methyl)-N-(3-(isobutylamino)phenyl) cyclohexanecarboxamide] was “+ (‘+’ means Cmpd/Fex >100)”. For `CCC/C=C/c1cccc(N(Cc2ccc(-c3ccc(N(C)C)cc3)cc2)C(=O)C2CCCCC2)c1` [Compound 7, (E)-N-((4′-(dimethylamino)-[1,1′-biphenyl]-4-yl)methyl)-N-(3-(pent-1-en-1-yl)phenyl)cyclohexanecarboxamide], on hFXR [1], the “Cmpd/Fex (ratio of the EC50 for the test compound relative to the EC50 of the Fexaramine control)” value was “++ (‘++’ means Cmpd/Fex >10 & <100)”. The same molecule yielded an EC50 at hFXR [2] of 3 to 10 µM.

As for `CN(C)c1ccc(-c2ccc(CN(C(=O)C3CCCCC3)c3cccc(CN4CCCC4=O)c3)cc2)cc1` [Compound 8, N-((4′-(Dimethylamino)-[1,1′-biphenyl]-4-yl)methyl)-N-(3-((2-oxopyrrolidin-1-yl)methyl)phenyl)cyclohexanecarboxamide], at hFXR [1], the “Cmpd/Fex (ratio of the EC50 for the test compound relative to the EC50 of the Fexaramine control)” value is “+ (‘+’ means Cmpd/Fex >100)”. In the case of `COC(=O)CNc1cccc(N(Cc2ccc(-c3ccc(N(C)C)cc3)cc2)C(=O)C2CCCCC2)c1` [Compound 9, Methyl 2-((3-(N-((4′-(dimethylamino)-[1,1′-biphenyl]-4-yl)methyl)cyclohexanecarboxamido)phenyl)amino)acetate], the “Cmpd/Fex (ratio of the EC50 for the test compound relative to the EC50 of the Fexaramine control)” value at hFXR [1] is on record as “++ (‘++’ means Cmpd/Fex >10 & <100)”. Moreover, the EC50 at hFXR [2] is ≤ 3 µM. For the molecule `COC(=O)CN(C)c1cccc(N(Cc2ccc(-c3ccc(N(C)C)cc3)cc2)C(=O)C2CCCCC2)c1` [Compound 10, Methyl 2-((3-(N-((4′-(dimethylamino)-[1,1′-biphenyl]-4-yl)methyl)cyclohexanecarboxamido)phenyl)(methyl)amino)acetate], at hFXR [1], the “Cmpd/Fex (ratio of the EC50 for the test compound relative to the EC50 of the Fexaramine control)” value was “+ (‘+’ means Cmpd/Fex >100)”. Same read-out and setting: as for `COC(=O)NCc1cccc(N(Cc2ccc(-c3ccc(N(C)C)cc3)cc2)C(=O)C2CCCCC2)c1` [Compound 11, Methyl 3-(N-((4′-(dimethylamino)-[1,1′-biphenyl]-4-yl)methyl)cyclohexanecarboxamido)benzylcarbamate], the entry is “+ (‘+’ means Cmpd/Fex >100)”; as for `CNC(=O)/C=C/c1cccc(N(Cc2ccc(-c3ccc(N(C)C)cc3)cc2)C(=O)C2CCCCC2)c1` [Compound 12, (E)-N-((4′-(Dimethylamino)-[1,1′-biphenyl]-4-yl)methyl)-N-(3-(3-(methylamino)-3-oxoprop-1-en-1-yl)phenyl)cyclohexanecarboxamide], “++ (‘++’ means Cmpd/Fex >10 & <100)”.

As to `C/C=C\c1cccc(N(Cc2ccc(-c3ccc(N(C)C)cc3)cc2)C(=O)C2CCCCC2)c1` [Compound 17, (Z)-N-((4′-(Dimethylamino)-[1,1′-biphenyl]-4-yl)methyl)-N-(3-(prop-1-en-1-yl)phenyl)cyclohexanecarboxamide], at hFXR [1], the “Cmpd/Fex (ratio of the EC50 for the test compound relative to the EC50 of the Fexaramine control)” value is “++ (‘++’ means Cmpd/Fex >10 & <100)”. On the same count and under the same terms, as for `CN(C)c1ccc(-c2ccc(CN(C(=O)C3CCCCC3)c3cccc(Oc4ccccc4)c3)cc2)cc1` [Compound 19, N-((4′-(Dimethylamino)-[1,1′-biphenyl]-4-yl)methyl)-N-(3-phenoxyphenyl)cyclohexanecarboxamide], the entry is “+ (‘+’ means Cmpd/Fex >100)”.
